Holding throughout (assay type): cell-based
Test [1] has as its target T1, F876L mutant Androgen Receptor (AR-F876L) (Homo sapiens (Human), UniProt P10275, F877L). Description: LNCaP-AR-F876L AG reporter assay (agonist mode). To be noted: agonist mode; for Emax: maximum % stimulation over tested concentration range, read-out: LNCaP-AR-F876L AG MAX % Stim; for EC50: pEC50 = −Log10(EC50 in Molar), read-out: LNCaP-AR-F876L AG pEC50 (converted). On the technique in general: Reporter assays use an easily measured gene product as a stand-in for the process of interest.

The target of test [2] is T1, F876L mutant Androgen Receptor (AR-F876L). Description: LNCaP-AR-F876L ANT reporter assay (antagonist mode). The settings on record: antagonist mode; for Emax: maximum % inhibition of R1881 control response over tested concentration range, read-out: LNCaP-AR-F876L ANT MAX % Inh; for IC50: pIC50 = −Log10(IC50 in Molar), read-out: LNCaP-AR-F876L ANT pIC50 (converted).
Test [3] has as its target T2, wild-type Androgen Receptor (AR-wt) (Homo sapiens (Human), UniProt P10275). Kind of test: LNCaP-AR-wt ANT reporter assay (antagonist mode). The settings on record: antagonist mode; for Emax: maximum % inhibition of R1881 control response over tested concentration range, read-out: LNCaP-AR-wt ANT MAX % Inh; for IC50: pIC50 = −Log10(IC50 in Molar), read-out: LNCaP-AR-wt ANT pIC50 (converted).

The target of test [4] is T2, wild-type Androgen Receptor (AR-wt). Description: LNCaP-AR-wt AG reporter assay (agonist mode). The settings on record: agonist mode; for Emax: maximum % stimulation over tested concentration range, read-out: LNCaP-AR-wt AG MAX % Stim; for EC50: pEC50 = −Log10(EC50 in Molar), read-out: LNCaP-AR-wt AG pEC50 (converted).

Each structure is given as a SMILES string.

T2 sequence (P10275 whole entry): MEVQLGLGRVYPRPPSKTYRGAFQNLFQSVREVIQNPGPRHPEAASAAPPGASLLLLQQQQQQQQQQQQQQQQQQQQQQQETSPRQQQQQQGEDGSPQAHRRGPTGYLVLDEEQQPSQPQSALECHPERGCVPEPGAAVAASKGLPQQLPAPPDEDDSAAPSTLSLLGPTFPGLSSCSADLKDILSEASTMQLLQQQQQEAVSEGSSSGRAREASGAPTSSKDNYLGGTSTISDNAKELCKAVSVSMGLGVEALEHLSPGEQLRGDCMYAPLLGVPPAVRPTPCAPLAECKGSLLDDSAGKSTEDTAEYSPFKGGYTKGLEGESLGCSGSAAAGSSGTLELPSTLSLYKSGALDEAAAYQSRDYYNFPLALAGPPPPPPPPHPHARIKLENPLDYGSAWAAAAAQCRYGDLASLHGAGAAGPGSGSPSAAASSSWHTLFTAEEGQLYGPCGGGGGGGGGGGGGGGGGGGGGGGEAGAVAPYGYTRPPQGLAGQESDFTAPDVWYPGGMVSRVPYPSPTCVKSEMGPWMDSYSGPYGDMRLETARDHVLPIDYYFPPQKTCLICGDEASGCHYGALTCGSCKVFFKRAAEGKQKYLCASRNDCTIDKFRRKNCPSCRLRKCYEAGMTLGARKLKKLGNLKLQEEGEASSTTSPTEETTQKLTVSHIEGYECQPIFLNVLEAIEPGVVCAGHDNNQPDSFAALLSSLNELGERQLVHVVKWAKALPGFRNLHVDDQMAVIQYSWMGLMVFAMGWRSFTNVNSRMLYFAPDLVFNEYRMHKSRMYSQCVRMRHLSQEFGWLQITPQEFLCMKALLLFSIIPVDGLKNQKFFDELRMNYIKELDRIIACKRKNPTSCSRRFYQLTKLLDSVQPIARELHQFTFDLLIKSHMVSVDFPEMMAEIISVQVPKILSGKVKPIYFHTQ
T1 sequence (P10275 whole entry F877L): as the sequence (P10275 whole entry) above, with F877L counted along it

For the compound `N#Cc1ncc(N2C(=O)C3(CCC3)N(c3ccc(CN4CCOCC4)cc3)C2=S)cc1C(F)(F)F` [Cpd 217, 5-[8-[4-(morpholinomethyl)phenyl]-5-oxo-7-thioxo-6,8-diazaspiro[3.4]octan-6-yl]-3-(trifluoromethyl)pyridine-2-carbonitrile], the Emax in test [1] came to 0.1%; in test [2], 100%; in test [3], 102%; in test [4], 0.4%. The EC50 in test [1] and in test [4] was above 15.1 µM each time. Also, the IC50 in test [2] is 0.355 µM; in test [3], 0.372 µM.
`CN1CC[C@H](CNC(=O)c2ccc(N3C(=S)N(c4cnc(C#N)c(C(F)(F)F)c4)C(=O)C34CCC4)cc2F)C1` [Cpd 218, 4-[6-[6-cyano-5-(trifluoromethyl)-3-pyridyl]-5-oxo-7-thioxo-6,8-diazaspiro[3.4]octan-8-yl]-2-fluoro-N-[[(3R)-1-methylpyrrolidin-3-yl]methyl]benzamide]: the Emax in test [1] amounted to 0.1%; in test [2] it was 99.6%; in test [3], 102%; in test [4], 0%. Besides, the EC50 in test [1] and in test [4] was above 15.1 µM throughout. For the same compound, the IC50 in test [2] is 0.912 µM; in test [3], 1.17 µM.
Regarding `CN1CCN(Cc2ccc(N3C(=S)N(c4cnc(C#N)c(Cl)c4)C(=O)C34CCC4)cc2)CC1` [Cpd 219, 3-chloro-5-[8-[4-[(4-methylpiperazin-1-yl)methyl]phenyl]-5-oxo-7-thioxo-6,8-diazaspiro[3 4]octan-6-yl]pyridine-2-carbonitrile], the Emax is 0.2% in test [1], 101% in test [2], 102% in test [3] and 0.3% in test [4]. In addition, the EC50 in test [1] and in test [4] was above 15.1 µM each time. In addition, the IC50 was 0.347 µM in test [2] and 0.372 µM in test [3].
On to `N#Cc1ncc(N2C(=O)C3(CCC3)N(c3ccc(CN4CCN(C5CC5)CC4)cc3)C2=S)cc1C(F)(F)F` [Cpd 220, 5-[8-[4-[(4-cyclopropylpiperazin-1-yl)methyl]phenyl]-5-oxo-7-thioxo-6,8-diazaspiro[3.4]octan-6-yl]-3-(trifluoromethyl)pyridine-2-carbonitrile], for which the Emax in test [1] turned out to be 0.1%; in test [2], 101%; in test [3], 102%; in test [4], 0.1%. Moreover, the EC50 in test [1] and in test [4] was above 15.1 µM throughout. The IC50 in test [2] is 0.589 µM; in test [3] it was 0.741 µM.
In the case of `N#Cc1ncc(N2C(=O)C3(CCC3)N(c3ccc(C(=O)NCC4CCNCC4)c(F)c3)C2=S)cc1C(F)(F)F` [Cpd 221, 4-[6-[6-cyano-5-(trifluoromethyl)-3-pyridyl]-5-oxo-7-thioxo-6,8-diazaspiro[3.4]octan-8-yl]-2-fluoro-N-(4-piperidylmethyl)benzamide], the Emax in test [1] is 0.1%; in test [2], 100%; in test [3], 101%; in test [4] it was -0.1%. Further, the EC50 in test [1] and in test [4] was above 15.1 µM each time. The IC50 in test [2] was 0.589 µM; in test [3], 0.891 µM.
As for `N#Cc1ncc(N2C(=O)C3(CCC3)N(c3ccc(CN4CCC(N)CC4)cc3)C2=S)cc1C(F)(F)F` [Cpd 224, 5-[8-[4-[(4-amino-1-piperidyl)methyl]phenyl]-5-oxo-7-thioxo-6,8-diazaspiro[3.4]octan-6-yl]-3-(trifluoromethyl)pyridine-2-carbonitrile], the Emax in test [1] is 0.1%; in test [2], 100%; in test [3], 101%; in test [4], 0%. For the same compound, the EC50 in test [1] and in test [4] was above 15.1 µM in each case. Further, the values for the IC50 in test [2] and in test [3] were 1.48 µM and 1.78 µM, respectively.
On to `N#Cc1ncc(N2C(=O)C3(CCC3)N(c3ccc(CN4CCN(CCO)CC4)cc3)C2=S)cc1C(F)(F)F` [Cpd 227, 5-[8-[4-[[4-(2-hydroxyethyl)piperazin-1-yl]methyl]phenyl]-5-oxo-7-thioxo-6,8-diazaspiro[3.4]octan-6-yl]-3-(trifluoromethyl)pyridine-2-carbonitrile], for which the Emax in test [1] was 0.1%; in test [2] it was 100%; in test [3] it was 102%; in test [4], -0.2%. Further, the EC50 in test [1] and in test [4] was above 15.1 µM in each case. Besides, the values for the IC50 in test [2] and in test [3] were 0.417 µM and 0.513 µM, respectively.
Turning to `N#Cc1ncc(N2C(=O)C3(CCC3)N(c3ccc(CN4CCNC(=O)C4)cc3)C2=S)cc1C(F)(F)F` [Cpd 228, 5-[5-oxo-8-[4-[(3-oxopiperazin-1-yl)methyl]phenyl]-7-thioxo-6,8-diazaspiro[3.4]octan-6-yl]-3-(trifluoromethyl)pyridine-2-carbonitrile], the Emax in test [1] is 0.1%; in test [2], 101%; in test [3], 102%; in test [4], -0.2%. For the same compound, the EC50 in test [1] and in test [4] was above 15.1 µM each time. The values for the IC50 in test [2] and in test [3] were 0.115 µM and 0.209 µM, respectively.
For the compound `Cc1cc(N2C(=O)C3(CCC3)N(c3ccc(CC4CCNCC4)cc3)C2=S)cnc1C#N` [Cpd 235, 3-methyl-5-[5-oxo-8-[4-(4-piperidylmethyl)phenyl]-7-thioxo-6,8-diazaspiro[3 4]octan-6-yl]pyridine-2-carbonitrile], the Emax in test [1] worked out at 0.1%; in test [2], 101%; in test [3], 101%; in test [4], 0.2%. The EC50 in test [1] and in test [4] was above 15.1 µM each time. For the same compound, the IC50 in test [2] was 0.562 µM; in test [3], 1.07 µM.
`COc1cc(N2C(=O)C3(CCC3)N(c3ccc(CC4CCNCC4)cc3)C2=S)cnc1C#N` [Cpd 236, 3-Methoxy-5-[8-oxo-5-(4-piperidin-4-ylmethyl-phenyl)-6-thioxo-5,7-diaza-spiro[3.4]oct-7-yl]-pyridine-2-carbonitrile]: the Emax in test [1] was determined as 0.2%; in test [2], 101%; in test [3], 103%; in test [4], 0.6%. Also, the EC50 in test [1] and in test [4] was above 15.1 µM in each case. The results for the IC50 in test [2] and in test [3] were 0.269 µM and 0.457 µM, respectively.
For the compound `CN1CCC(Cc2ccc(N3C(=S)N(c4cnc(C#N)c(C(F)(F)F)c4)C(=O)C34CCC4)cc2)CC1` [Cpd 237, 5-[8-[4-[(1-methyl-4-piperidyl)methyl]phenyl]-5-oxo-7-thioxo-6,8-diazaspiro[3.4]octan-6-yl]-3-(trifluoromethyl)pyridine-2-carbonitrile], the Emax in test [1] came out at 0.1%; in test [2], 100%; in test [3], 104%; in test [4], 0.4%. The EC50 in test [1] and in test [4] was above 15.1 µM in each case. In addition, the figures for the IC50 in test [2] and in test [3] were 0.468 µM and 0.832 µM, respectively.
With `Cc1cc(N2C(=O)C3(CCC3)N(c3ccc(CC4CCN(C)CC4)cc3)C2=S)cnc1C#N` [Cpd 238, 3-methyl-5-[8-[4-[(1-methyl-4-piperidyl)methyl]phenyl]-5-oxo-7-thioxo-6,8-diazaspiro[3.4]octan-6-yl]pyridine-2-carbonitrile], the Emax in test [1] is 0.1%; in test [2], 101%; in test [3], 101%; in test [4], 0%. The EC50 in test [1] and in test [4] was above 15.1 µM throughout. The IC50 is 0.813 µM in test [2] and 1.41 µM in test [3].
Regarding `COc1cc(N2C(=O)C3(CCC3)N(c3ccc(CC4CCN(C)CC4)cc3)C2=S)cnc1C#N` [Cpd 239, 3-methoxy-5-[8-[4-[(1-methyl-4-piperidyl)methyl]phenyl]-5-oxo-7-thioxo-6,8-diazaspiro[3.4]octan-6-yl]pyridine-2-carbonitrile], the Emax in test [1] was 0.2%; in test [2] it was 102%; in test [3], 103%; in test [4], -0.1%. Also, the EC50 in test [1] and in test [4] was above 15.1 µM each time. Also, the IC50 in test [2] is 0.347 µM; in test [3], 0.603 µM.
With `Cn1cnc2cc(N3C(=S)N(c4cnc(C#N)c(C(F)(F)F)c4)C(=O)C34CCC4)ccc21` [Cpd 244, 5-[8-(1-methylbenzimidazol-5-yl)-5-oxo-7-thioxo-6,8-diazaspiro[3.4]octan-6-yl]-3-(trifluoromethyl)pyridine-2-carbonitrile], the Emax in test [1] is -0.5%; in test [2], 101%; in test [3], 98.7%; in test [4] it was 0.2%. The EC50 in test [1] and in test [4] was above 15.1 µM in each case. The IC50 in test [2] was 0.245 µM; in test [3] it was 0.646 µM.
For `Cc1nc2cc(N3C(=S)N(c4cnc(C#N)c(C(F)(F)F)c4)C(=O)C34CCC4)ccc2[nH]1` [Cpd 245, 5-[8-(2-methyl-1H-benzimidazol-5-yl)-5-oxo-7-thioxo-6,8-diazaspiro[3.4]octan-6-yl]-3-(trifluoromethyl)pyridine-2-carbonitrile], the Emax in test [1] was determined as 0.5%; in test [2], 102%; in test [3], 99.3%; in test [4], 0%. The EC50 in test [1] and in test [4] was above 15.1 µM each time. Also, the results for the IC50 in test [2] and in test [3] were 0.151 µM and 0.479 µM, respectively.

The record behind these values is patent US10981926B2 (Janssen Pharmaceutica NV, priority 2016, dated 2021).
